Source: PubChem BioAssay AID2060502 (Molecular Pharmacology Branch, DTP, NCI, 2025)

System: 885724-159-R-J1-PDC complex spheroid viability
Assay: Anticancer human tumor 885724-159-R-J1-PDC patient-derived pancreatic adenocarcinoma cell line growth inhibition [GQUAD]
Details: for IC50: curve of first compound; for viability, T/C: stronger effect = lower value
Procedure, shortened: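 Tumor cells were grown as complex spheroids with HUVEC endothelial cells and mesenchymal stem cells as stroma. G-quadruplex stabilizers were combined with targeted agents over half-log dilutions from near the clinical Cmax, or from 10 microM.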

[1] = second compound 0.0316 µM, first compound 0.000999 µM
[2] = second compound 0.0316 µM, first compound 0.00316 µM
[3] = second compound 0.0316 µM, first compound 0.00999 µM
[4] = second compound 0.0316 µM, first compound 0.0316 µM
[5] = second compound 0.0316 µM, first compound 0.0999 µM
[6] = second compound 0.0316 µM, first compound 0.316 µM
[7] = second compound 0.1 µM, first compound 0.000999 µM
[8] = second compound 0.1 µM, first compound 0.00316 µM
[9] = second compound 0.1 µM, first compound 0.00999 µM
[10] = second compound 0.1 µM, first compound 0.0316 µM
[11] = second compound 0.1 µM, first compound 0.0999 µM
[12] = second compound 0.1 µM, first compound 0.316 µM
[13] = second compound 0.316 µM, first compound 0.000999 µM
[14] = second compound 0.316 µM, first compound 0.00316 µM
[15] = second compound 0.316 µM, first compound 0.00999 µM
[16] = second compound 0.316 µM, first compound 0.0316 µM
[17] = second compound 0.316 µM, first compound 0.0999 µM
[18] = second compound 0.316 µM, first compound 0.316 µM
[19] = second compound 1 µM, first compound 0.000999 µM
[20] = second compound 1 µM, first compound 0.00316 µM
[21] = second compound 1 µM, first compound 0.00999 µM
[22] = second compound 1 µM, first compound 0.0316 µM
[23] = second compound 1 µM, first compound 0.0999 µM
[24] = second compound 1 µM, first compound 0.316 µM
[25] = second compound 3.16 µM, first compound 0.000999 µM
[26] = second compound 3.16 µM, first compound 0.00316 µM
[27] = second compound 3.16 µM, first compound 0.00999 µM
[28] = second compound 3.16 µM, first compound 0.0316 µM
[29] = second compound 3.16 µM, first compound 0.0999 µM
[30] = second compound 3.16 µM, first compound 0.316 µM
[31] = second compound 10 µM, first compound 0.000999 µM
[32] = second compound 10 µM, first compound 0.00316 µM
[33] = second compound 10 µM, first compound 0.00999 µM
[34] = second compound 10 µM, first compound 0.0316 µM
[35] = second compound 10 µM, first compound 0.0999 µM
[36] = second compound 10 µM, first compound 0.316 µM
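Further: spheroids exposed to agents for seven days before readout.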
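Wherever viability, T/C is given: percent of vehicle control viability where 100% = DMSO wells.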

Compound: Cc1[nH]c2ccccc2c1CCNCc1ccc(/C=C/C(=O)NO)cc1 + CN(C)c1ccc(Nc2c3ccc(NC(=O)CCN4CCCC4)cc3nc3cc(NC(=O)CCN4CCCC4)ccc23)cc1
- IC50 (second compound 0.0316 µM): > 316 nM
- IC50 (second compound 0.1 µM): > 316 nM
- IC50 (second compound 0.316 µM): 286 nM
- IC50 (second compound 1 µM): 214 nM
- IC50 (second compound 3.16 µM): 92.9 nM
- IC50 (second compound 10 µM): 152 nM
- viability, T/C [1]: 103%
- viability, T/C [2]: 98.3%
- viability, T/C [3]: 93.1%
- viability, T/C [4]: 96.9%
- viability, T/C [5]: 124%
- viability, T/C [6]: 60.1%
- viability, T/C [7]: 99.8%
- viability, T/C [8]: 91.7%
- viability, T/C [9]: 95%
- viability, T/C [10]: 125%
- viability, T/C [11]: 105%
- viability, T/C [12]: 54.1%
- viability, T/C [13]: 84.7%
- viability, T/C [14]: 94%
- viability, T/C [15]: 95.3%
- viability, T/C [16]: 84.6%
- viability, T/C [17]: 112%
- viability, T/C [18]: 45.7%
- viability, T/C [19]: 90.3%
- viability, T/C [20]: 75.6%
- viability, T/C [21]: 75.5%
- viability, T/C [22]: 77.5%
- viability, T/C [23]: 69.8%
- viability, T/C [24]: 40.3%
- viability, T/C [25]: 65.2%
- viability, T/C [26]: 81.4%
- viability, T/C [27]: 82.1%
- viability, T/C [28]: 73.1%
- viability, T/C [29]: 48.5%
- viability, T/C [30]: 40.1%
- viability, T/C [31]: 65%
- viability, T/C [32]: 58.3%
- viability, T/C [33]: 59.6%
- viability, T/C [34]: 55.6%
- viability, T/C [35]: 69.3%
- viability, T/C [36]: 30%

Compound: Cc1[nH]c2ccccc2c1CCNCc1ccc(/C=C/C(=O)NO)cc1 + Cc1[nH]c2ccc(F)cc2c1-c1nc2c3cccnc3c3ncccc3c2[nH]1
- IC50 (second compound 0.0316 µM): 271 nM
- IC50 (second compound 0.1 µM): 305 nM
- IC50 (second compound 0.316 µM): 281 nM
- IC50 (second compound 1 µM): 213 nM
- IC50 (second compound 3.16 µM): < 0.999 nM
- IC50 (second compound 10 µM): 226 nM
- viability, T/C [1]: 87%
- viability, T/C [2]: 99%
- viability, T/C [3]: 93.4%
- viability, T/C [4]: 98.2%
- viability, T/C [5]: 106%
- viability, T/C [6]: 42.8%
- viability, T/C [7]: 95.9%
- viability, T/C [8]: 90.3%
- viability, T/C [9]: 87.8%
- viability, T/C [10]: 95%
- viability, T/C [11]: 99.6%
- viability, T/C [12]: 48.5%
- viability, T/C [13]: 101%
- viability, T/C [14]: 77.9%
- viability, T/C [15]: 83.1%
- viability, T/C [16]: 81.2%
- viability, T/C [17]: 78.9%
- viability, T/C [18]: 46.4%
- viability, T/C [19]: 75.5%
- viability, T/C [20]: 60.8%
- viability, T/C [21]: 66.4%
- viability, T/C [22]: 57.8%
- viability, T/C [23]: 82.2%
- viability, T/C [24]: 40.3%
- viability, T/C [25]: 18.1%
- viability, T/C [26]: 13.1%
- viability, T/C [27]: 19.2%
- viability, T/C [28]: 11.5%
- viability, T/C [29]: 21.2%
- viability, T/C [30]: 31.6%
- viability, T/C [31]: 68.1%
- viability, T/C [32]: 75.2%
- viability, T/C [33]: 64%
- viability, T/C [34]: 69.7%
- viability, T/C [35]: 81.6%
- viability, T/C [36]: 41.2%
